According to PubChem BioAssay (NCI):
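Following 48 hours of exposure in 96-well plates, responses at five concentrations were used to interpolate endpoints linearly. TGI denotes the concentration required for complete inhibition of growth.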

Key:
Experiment in all cases: NCI anticancer screen, dose series, 48 h
SK-MEL-28 melanoma = system: SK-MEL-28 melanoma
HS 578T breast = system: HS 578T breast
MDA-N = system: MDA-N
SNB-19 CNS = system: SNB-19 CNS
SK-MEL-5 melanoma = system: SK-MEL-5 melanoma
UACC-257 melanoma = system: UACC-257 melanoma
SK-MEL-2 melanoma = system: SK-MEL-2 melanoma
MOLT-4 leukemia = system: MOLT-4 leukemia
HCT-116 colon = system: HCT-116 colon
A498 renal = system: A498 renal
786-0 renal = system: 786-0 renal
DU-145 prostate = system: DU-145 prostate
MCF7 breast = system: MCF7 breast
HCC-2998 colon = system: HCC-2998 colon
SR leukemia = system: SR leukemia

| Structure (SMILES) | TGI (SK-MEL-28 melanoma) [µM] | TGI (HS 578T breast) [µM] | TGI (MDA-N) [µM] | TGI (SNB-19 CNS) [µM] | TGI (SK-MEL-5 melanoma) [µM] | TGI (UACC-257 melanoma) [µM] | TGI (SK-MEL-2 melanoma) [µM] | TGI (MOLT-4 leukemia) [µM] | TGI (HCT-116 colon) [µM] | TGI (A498 renal) [µM] | TGI (786-0 renal) [µM] | TGI (DU-145 prostate) [µM] | TGI (MCF7 breast) [µM] | TGI (HCC-2998 colon) [µM] | TGI (SR leukemia) [µM] |
| --- | --- | --- | --- | --- | --- | --- | --- | --- | --- | --- | --- | --- | --- | --- | --- |
| Cc1cn(C2CC(OC(c3ccccc3)(c3ccccc3)c3ccccc3)C(COC(c3ccccc3)(c3ccccc3)c3ccccc3)O2)c(=O)[nH]c1=O (stereo not given) | > 100 | > 100 | > 100 | > 100 | > 100 | > 100 | > 100 | > 100 | > 100 | 73.8 | > 100 | > 100 | > 100 | > 100 | > 100 |
| CC1(C)[C@@H]2C[C@H]1c1cnc(-c3ccccn3)cc1[C@H]2C(O)[C@@H]1c2cc(-c3ccccn3)ncc2[C@H]2C[C@@H]1C2(C)C (stereo not given in full) | 29.7 | 37.3 | 11 | 15.5 | 1.42 | 26 | 13 | 0.505 | 5.34 | 6.24 | 4.69 | 3.47 | 13.5 | 20.8 | 0.354 |
| NS(=O)(=O)c1nnc(NSc2ccc([N+](=O)[O-])cc2)s1 | > 100 | > 100 | > 100 | > 100 | > 100 | > 100 | > 100 | > 100 | > 100 | > 100 | > 100 | > 100 | > 100 | > 100 | > 100 |
| Cc1ccc2c(c1)C(=O)/C(=C\c1ccc(Cl)cc1)CCS2(=O)=O | 13.5 | > 31.5 | > 36.5 | 6.82 | 7.8 | 7.23 | 61 | 9.79 | 3.51 | 26.4 | 3.49 | 8.15 | 14 | 5.43 | 5.55 |
| OCC1OC(O[C@H]2CN3[C@H](O)[C@@H](O)[C@H](O)[C@H]3C2O)C(O)C(O)C1O (stereo not given in full) | > 100 | > 100 | > 100 | > 100 | > 100 | > 100 | > 100 | > 100 | > 100 | > 100 | > 100 | > 100 | > 100 | > 100 | > 100 |
| COc1cc(/C=C/C(=O)O)ccc1OS(=O)(=O)O | > 100 | > 100 | > 100 | > 100 | > 100 | > 100 | > 100 | > 100 | > 100 | > 100 | > 100 | > 100 | > 100 | > 100 | > 100 |
| CC[P+](C#Cc1ccccc1)(c1ccccc1)c1ccccc1 | 4.68 | 7.77 | 3.44 | 17.5 | 2.84 | 4.11 | 4.3 | 3.93 | 5.86 | 21.2 | 4.36 | 10.4 | 10.8 | 4.46 | 5.73 |
